Source: the supplement of paper PMC8882468
± gives the standard deviation of the averaged measurements.

What follows are molecules tested on HCI-025 (organoid from a breast cancer xenograft) (assay: CTG-3D luminescence at 96 h relative to day-0 seeding control (ratio to day 0); higher = more growth / less cytotoxicity; PDxO 3D drug screen, 96 h, CTG-3D normalised to day-0 seeding control.). Details: 100 µM; days in culture: 209.
For `C[C@H](NC(=O)CCC(F)(F)F)C(=O)N[C@@H]1C(=O)N(CCO)c2ncccc2-c2ccccc21` [crenigacestat], the “CTG-3D luminescence at 96 h” value was 1.45.
`COc1cccc2c1C(=O)c1c(O)c3c(c(O)c1C2=O)C[C@@](O)(C(=O)CO)C[C@@H]3O[C@H]1C[C@H](N)[C@H](O)[C@H](C)O1` [doxorubicin] was tested, and the “CTG-3D luminescence at 96 h” value was -0.00838.
For `C[C@]12CC[C@@H]3c4ccc(O)cc4C[C@@H](CCCCCCCCC[S+]([O-])CCCC(F)(F)C(F)(F)F)[C@H]3[C@@H]1CC[C@@H]2O` (stereo partly specified) [fulvestrant], the “CTG-3D luminescence at 96 h” value was 1.23.
In the case of `Nc1ccn([C@@H]2O[C@H](CO)[C@@H](O)C2(F)F)c(=O)n1` [gemcitabine], the “CTG-3D luminescence at 96 h” value is reported as 0.155.
With `C=CC(=O)N1CCC[C@@H](n2nc(-c3ccc(Oc4ccccc4)cc3)c3c(N)ncnc32)C1` [ibrutinib] the “CTG-3D luminescence at 96 h” value was -0.0107.
`CN(Cc1cnc2nc(N)nc(N)c2n1)c1ccc(C(=O)N[C@@H](CCC(=O)O)C(=O)O)cc1` [methotrexate] was tested, and the “CTG-3D luminescence at 96 h” value was 0.76.
For `CC1(C)CCC(c2ccc(Cl)cc2)=C(CN2CCN(c3ccc(C(=O)NS(=O)(=O)c4ccc(N[C@H](CCN5CCOCC5)CSc5ccccc5)c(S(=O)(=O)C(F)(F)F)c4)cc3)CC2)C1` [navitoclax], the “CTG-3D luminescence at 96 h” value was 0.00258.
In the case of `NC(=O)c1cccc2cn(-c3ccc([C@@H]4CCCNC4)cc3)nc12` [niraparib], the “CTG-3D luminescence at 96 h” value is reported as -0.0263.

Same assay, conditions: 100 µM; days in culture: 218
`C[C@H](NC(=O)CCC(F)(F)F)C(=O)N[C@@H]1C(=O)N(CCO)c2ncccc2-c2ccccc21` [crenigacestat] was tested, and the “CTG-3D luminescence at 96 h” value was 1.58.
In the case of `COc1cccc2c1C(=O)c1c(O)c3c(c(O)c1C2=O)C[C@@](O)(C(=O)CO)C[C@@H]3O[C@H]1C[C@H](N)[C@H](O)[C@H](C)O1` [doxorubicin], the “CTG-3D luminescence at 96 h” value is reported as -0.0116.
For `C[C@]12CC[C@@H]3c4ccc(O)cc4C[C@@H](CCCCCCCCC[S+]([O-])CCCC(F)(F)C(F)(F)F)[C@H]3[C@@H]1CC[C@@H]2O` (stereo partly specified) [fulvestrant], the “CTG-3D luminescence at 96 h” value was 1.21.
For `Nc1ccn([C@@H]2O[C@H](CO)[C@@H](O)C2(F)F)c(=O)n1` [gemcitabine], the “CTG-3D luminescence at 96 h” value was 0.143.
`C=CC(=O)N1CCC[C@@H](n2nc(-c3ccc(Oc4ccccc4)cc3)c3c(N)ncnc32)C1` [ibrutinib] was tested, and the “CTG-3D luminescence at 96 h” value was -0.00991.
In the case of `CN(Cc1cnc2nc(N)nc(N)c2n1)c1ccc(C(=O)N[C@@H](CCC(=O)O)C(=O)O)cc1` [methotrexate], the “CTG-3D luminescence at 96 h” value is reported as 0.754.
For `CC1(C)CCC(c2ccc(Cl)cc2)=C(CN2CCN(c3ccc(C(=O)NS(=O)(=O)c4ccc(N[C@H](CCN5CCOCC5)CSc5ccccc5)c(S(=O)(=O)C(F)(F)F)c4)cc3)CC2)C1` [navitoclax], the “CTG-3D luminescence at 96 h” value was 0.0152.
`NC(=O)c1cccc2cn(-c3ccc([C@@H]4CCCNC4)cc3)nc12` [niraparib] was tested, and the “CTG-3D luminescence at 96 h” value was -0.304.

Same assay, conditions: 625 fM; days in culture: 172
`C[C@H](NC(=O)CCC(F)(F)F)C(=O)N[C@@H]1C(=O)N(CCO)c2ncccc2-c2ccccc21` [crenigacestat] was tested, and the “CTG-3D luminescence at 96 h” value was 2.44.
`COc1cccc2c1C(=O)c1c(O)c3c(c(O)c1C2=O)C[C@@](O)(C(=O)CO)C[C@@H]3O[C@H]1C[C@H](N)[C@H](O)[C@H](C)O1` [doxorubicin] was tested, and the “CTG-3D luminescence at 96 h” value was 2.18.
For `C[C@]12CC[C@@H]3c4ccc(O)cc4C[C@@H](CCCCCCCCC[S+]([O-])CCCC(F)(F)C(F)(F)F)[C@H]3[C@@H]1CC[C@@H]2O` (stereo partly specified) [fulvestrant], the “CTG-3D luminescence at 96 h” value was 2.87.
`Nc1ccn([C@@H]2O[C@H](CO)[C@@H](O)C2(F)F)c(=O)n1` [gemcitabine] was tested, and the “CTG-3D luminescence at 96 h” value was 2.47.
For `C=CC(=O)N1CCC[C@@H](n2nc(-c3ccc(Oc4ccccc4)cc3)c3c(N)ncnc32)C1` [ibrutinib], the “CTG-3D luminescence at 96 h” value was 2.37.
In the case of `CN(Cc1cnc2nc(N)nc(N)c2n1)c1ccc(C(=O)N[C@@H](CCC(=O)O)C(=O)O)cc1` [methotrexate], the “CTG-3D luminescence at 96 h” value is reported as 2.55.
With `CC1(C)CCC(c2ccc(Cl)cc2)=C(CN2CCN(c3ccc(C(=O)NS(=O)(=O)c4ccc(N[C@H](CCN5CCOCC5)CSc5ccccc5)c(S(=O)(=O)C(F)(F)F)c4)cc3)CC2)C1` [navitoclax] the “CTG-3D luminescence at 96 h” value was 2.63.
In the case of `NC(=O)c1cccc2cn(-c3ccc([C@@H]4CCCNC4)cc3)nc12` [niraparib], the “CTG-3D luminescence at 96 h” value is reported as 2.26.

Same assay, conditions: 625 fM; days in culture: 209
In the case of `C[C@H](NC(=O)CCC(F)(F)F)C(=O)N[C@@H]1C(=O)N(CCO)c2ncccc2-c2ccccc21` [crenigacestat], the “CTG-3D luminescence at 96 h” value is reported as 1.58.
`COc1cccc2c1C(=O)c1c(O)c3c(c(O)c1C2=O)C[C@@](O)(C(=O)CO)C[C@@H]3O[C@H]1C[C@H](N)[C@H](O)[C@H](C)O1` [doxorubicin] was tested, and the “CTG-3D luminescence at 96 h” value was 1.45.
`C[C@]12CC[C@@H]3c4ccc(O)cc4C[C@@H](CCCCCCCCC[S+]([O-])CCCC(F)(F)C(F)(F)F)[C@H]3[C@@H]1CC[C@@H]2O` (stereo partly specified) [fulvestrant] was tested, and the “CTG-3D luminescence at 96 h” value was 1.44.
For `Nc1ccn([C@@H]2O[C@H](CO)[C@@H](O)C2(F)F)c(=O)n1` [gemcitabine], the “CTG-3D luminescence at 96 h” value was 1.79.
With `C=CC(=O)N1CCC[C@@H](n2nc(-c3ccc(Oc4ccccc4)cc3)c3c(N)ncnc32)C1` [ibrutinib] the “CTG-3D luminescence at 96 h” value was 1.71.
In the case of `CN(Cc1cnc2nc(N)nc(N)c2n1)c1ccc(C(=O)N[C@@H](CCC(=O)O)C(=O)O)cc1` [methotrexate], the “CTG-3D luminescence at 96 h” value is reported as 1.49.
For `CC1(C)CCC(c2ccc(Cl)cc2)=C(CN2CCN(c3ccc(C(=O)NS(=O)(=O)c4ccc(N[C@H](CCN5CCOCC5)CSc5ccccc5)c(S(=O)(=O)C(F)(F)F)c4)cc3)CC2)C1` [navitoclax], the “CTG-3D luminescence at 96 h” value was 2.29.
With `NC(=O)c1cccc2cn(-c3ccc([C@@H]4CCCNC4)cc3)nc12` [niraparib] the “CTG-3D luminescence at 96 h” value was 1.59.

Same assay, conditions: 625 fM; days in culture: 218
In the case of `C[C@H](NC(=O)CCC(F)(F)F)C(=O)N[C@@H]1C(=O)N(CCO)c2ncccc2-c2ccccc21` [crenigacestat], the “CTG-3D luminescence at 96 h” value is reported as 2.02.
For `COc1cccc2c1C(=O)c1c(O)c3c(c(O)c1C2=O)C[C@@](O)(C(=O)CO)C[C@@H]3O[C@H]1C[C@H](N)[C@H](O)[C@H](C)O1` [doxorubicin], the “CTG-3D luminescence at 96 h” value was 1.66.
For `C[C@]12CC[C@@H]3c4ccc(O)cc4C[C@@H](CCCCCCCCC[S+]([O-])CCCC(F)(F)C(F)(F)F)[C@H]3[C@@H]1CC[C@@H]2O` (stereo partly specified) [fulvestrant], the “CTG-3D luminescence at 96 h” value was 1.28.
In the case of `Nc1ccn([C@@H]2O[C@H](CO)[C@@H](O)C2(F)F)c(=O)n1` [gemcitabine], the “CTG-3D luminescence at 96 h” value is reported as 1.79.
In the case of `C=CC(=O)N1CCC[C@@H](n2nc(-c3ccc(Oc4ccccc4)cc3)c3c(N)ncnc32)C1` [ibrutinib], the “CTG-3D luminescence at 96 h” value is reported as 1.84.
`CN(Cc1cnc2nc(N)nc(N)c2n1)c1ccc(C(=O)N[C@@H](CCC(=O)O)C(=O)O)cc1` [methotrexate] was tested, and the “CTG-3D luminescence at 96 h” value was 1.76.
For `CC1(C)CCC(c2ccc(Cl)cc2)=C(CN2CCN(c3ccc(C(=O)NS(=O)(=O)c4ccc(N[C@H](CCN5CCOCC5)CSc5ccccc5)c(S(=O)(=O)C(F)(F)F)c4)cc3)CC2)C1` [navitoclax], the “CTG-3D luminescence at 96 h” value was 1.91.
`NC(=O)c1cccc2cn(-c3ccc([C@@H]4CCCNC4)cc3)nc12` [niraparib] was tested, and the “CTG-3D luminescence at 96 h” value was 1.62.

Each molecule was assayed on HCI-003.E2 (organoid from an ER-positive breast cancer xenograft) in the same assay as above. Details: 12.5 pM.
For `C[C@H](NC(=O)CCC(F)(F)F)C(=O)N[C@@H]1C(=O)N(CCO)c2ncccc2-c2ccccc21` [crenigacestat], the “CTG-3D luminescence at 96 h” value was 2.2 ± 0.74.
In the case of `COc1cccc2c1C(=O)c1c(O)c3c(c(O)c1C2=O)C[C@@](O)(C(=O)CO)C[C@@H]3O[C@H]1C[C@H](N)[C@H](O)[C@H](C)O1` [doxorubicin], the “CTG-3D luminescence at 96 h” value is reported as 2.13 ± 0.72.
In the case of `C[C@]12CC[C@@H]3c4ccc(O)cc4C[C@@H](CCCCCCCCC[S+]([O-])CCCC(F)(F)C(F)(F)F)[C@H]3[C@@H]1CC[C@@H]2O` (stereo partly specified) [fulvestrant], the “CTG-3D luminescence at 96 h” value is reported as 2.4 ± 0.89.
With `Nc1ccn([C@@H]2O[C@H](CO)[C@@H](O)C2(F)F)c(=O)n1` [gemcitabine] the “CTG-3D luminescence at 96 h” value was 2.3 ± 0.95.
For `C=CC(=O)N1CCC[C@@H](n2nc(-c3ccc(Oc4ccccc4)cc3)c3c(N)ncnc32)C1` [ibrutinib], the “CTG-3D luminescence at 96 h” value was 2.16 ± 0.65.
For `CN(Cc1cnc2nc(N)nc(N)c2n1)c1ccc(C(=O)N[C@@H](CCC(=O)O)C(=O)O)cc1` [methotrexate], the “CTG-3D luminescence at 96 h” value was 2.32 ± 0.86.
For `CC1(C)CCC(c2ccc(Cl)cc2)=C(CN2CCN(c3ccc(C(=O)NS(=O)(=O)c4ccc(N[C@H](CCN5CCOCC5)CSc5ccccc5)c(S(=O)(=O)C(F)(F)F)c4)cc3)CC2)C1` [navitoclax], the “CTG-3D luminescence at 96 h” value was 1.98 ± 0.72.
With `NC(=O)c1cccc2cn(-c3ccc([C@@H]4CCCNC4)cc3)nc12` [niraparib] the “CTG-3D luminescence at 96 h” value was 2.06 ± 0.91.

Same assay, conditions: 0.00025 µM
With `C[C@H](NC(=O)CCC(F)(F)F)C(=O)N[C@@H]1C(=O)N(CCO)c2ncccc2-c2ccccc21` [crenigacestat] the “CTG-3D luminescence at 96 h” value was 2.4 ± 0.87.
For `COc1cccc2c1C(=O)c1c(O)c3c(c(O)c1C2=O)C[C@@](O)(C(=O)CO)C[C@@H]3O[C@H]1C[C@H](N)[C@H](O)[C@H](C)O1` [doxorubicin], the “CTG-3D luminescence at 96 h” value was 2.46 ± 0.81.
With `C[C@]12CC[C@@H]3c4ccc(O)cc4C[C@@H](CCCCCCCCC[S+]([O-])CCCC(F)(F)C(F)(F)F)[C@H]3[C@@H]1CC[C@@H]2O` (stereo partly specified) [fulvestrant] the “CTG-3D luminescence at 96 h” value was 2.42 ± 0.69.
With `Nc1ccn([C@@H]2O[C@H](CO)[C@@H](O)C2(F)F)c(=O)n1` [gemcitabine] the “CTG-3D luminescence at 96 h” value was 2.24 ± 0.64.
In the case of `C=CC(=O)N1CCC[C@@H](n2nc(-c3ccc(Oc4ccccc4)cc3)c3c(N)ncnc32)C1` [ibrutinib], the “CTG-3D luminescence at 96 h” value is reported as 2.46 ± 0.81.
In the case of `CN(Cc1cnc2nc(N)nc(N)c2n1)c1ccc(C(=O)N[C@@H](CCC(=O)O)C(=O)O)cc1` [methotrexate], the “CTG-3D luminescence at 96 h” value is reported as 2.47 ± 0.85.
For `CC1(C)CCC(c2ccc(Cl)cc2)=C(CN2CCN(c3ccc(C(=O)NS(=O)(=O)c4ccc(N[C@H](CCN5CCOCC5)CSc5ccccc5)c(S(=O)(=O)C(F)(F)F)c4)cc3)CC2)C1` [navitoclax], the “CTG-3D luminescence at 96 h” value was 2.09 ± 0.83.
In the case of `NC(=O)c1cccc2cn(-c3ccc([C@@H]4CCCNC4)cc3)nc12` [niraparib], the “CTG-3D luminescence at 96 h” value is reported as 2.18 ± 0.87.
